# Data from ChEMBL document CHEMBL2150877, “γ-Secretase modulators as potential disease modifying anti-Alzheimer's drugs” (J Med Chem, 2011).
# How the values were obtained:
# Mus musculus [1] = assay: Antialzheimer activity in po dosed YAC transgenic mouse model assessed as brain compound concentration causing reduction in brain Abeta42 levels; format: functional, organism-based
# Mus musculus [2] = assay: Antialzheimer activity in po dosed YAC transgenic mouse model assessed as reduction in Abeta42 levels; format: functional
# [3] = Inhibition of gamma secretase assessed as reduction in Abeta42 production
# Mus musculus [4] = assay: Antialzheimer activity in po dosed YAC transgenic mouse model assessed as plasma compound concentration causing reduction in brain Abeta42 levels; format: functional, organism-based
# Mus musculus [5] = assay: Antialzheimer activity in YAC transgenic mouse model assessed as reduction in brain Abeta42 levels at 10 mg/kg, po measured after 7 hrs; format: functional; design: scale not given: the % may be the effect or the level left
# Mus musculus [6] = assay: Antialzheimer activity in Tg2576 mouse assessed as reduction in Abeta42 production at 25 mg/kg, po after 18 hrs; format: functional; design: scale not given: the % may be the effect or the level left
# [7] = Inhibition of gamma secretase expressed in CHO cells assessed as reduction in Abeta40 and Abeta 42 production; format: cell-based
# [8] = Inhibition of gamma secretase expressed in CHO cells assessed as reduction in Abeta42 production; format: cell-based
# [9] = Ratio of drug level in brain to plasma in rat; format: ADME, cell-free; conditions: read-out: BPR
# Rattus norvegicus = organism: Rattus norvegicus; assay: Antialzheimer activity in non-transgenic rat assessed as reduction in brain Abeta42 levels; format: functional; design: scale not given: the % may be the effect or the level left
# Brain = assay: Drug level in rat brain brain; format: ADME, tissue-based; conditions: in vivo, read-out: Drug uptake
# Mus musculus [10] = assay: Antialzheimer activity in transgenic hAPP mouse expressing Swedish and London mutations assessed as reduction in plaque number in brain cortex dosed for 6 months; format: functional; design: scale not given: the % may be the effect or the level left
# Mus musculus [11] = assay: Antialzheimer activity in transgenic hAPP mouse expressing Swedish and London mutations assessed as reduction in plaque area in brain cortex dosed for 6 months; format: functional; design: scale not given: the % may be the effect or the level left
# Mus musculus [12] = assay: Antialzheimer activity in transgenic hAPP mouse expressing Swedish and London mutations assessed as reduction in plaque number in brain hippocampus dosed for 6 months; format: functional; design: scale not given: the % may be the effect or the level left
# Mus musculus [13] = assay: Antialzheimer activity in transgenic hAPP mouse expressing Swedish and London mutations assessed as reduction in plaque area in brain hippocampus dosed for 6 months; format: functional; design: scale not given: the % may be the effect or the level left
# Mus musculus [14] = assay: Antialzheimer activity in transgenic Alzheimer disease mouse model assessed as increase in recognition index at 375 ppm dosed for 10 months by object recognition memory test (reference value: 48.9%); format: functional
# Mus musculus [15] = assay: Brain penetration in mouse assessed as brain/plasma ratio at 100 or 300 mg/kg/day for 4 to 5 days; format: ADME, organism-based; conditions: in vivo
# Mus musculus [16] = assay: Antialzheimer activity in transgenic Alzheimer disease mouse model assessed as increase in recognition index at 125 ppm dosed for 10 months by object recognition memory test (reference value: 48.9%); format: functional
# [17] = Drug level in mouse plasma dosed for 4 weeks; format: ADME, organism-based
# [18] = Drug level in brain of Tg2576 mouse expressing human APP Swedish mutant at 60 mg/kg/day after 17 weeks; format: ADME, organism-based; conditions: read-out: Drug uptake
# [19] = Drug level in mouse brain dosed for 4 weeks; format: ADME, organism-based; conditions: read-out: Drug uptake
# Mus musculus [20] = assay: Antialzheimer activity in Tg2576 mouse assessed as reduction in plaque load in brain hippocampus at 50 mg/kg/day, po (reference value: 0.5%); format: functional; design: scale not given: the % may be the effect or the level left
# Plasma = assay: Plasma concentration in Tg2576 mouse at 50 mg/kg/day, po; format: ADME, organism-based; design: route oral; conditions: in vivo
# [21] = Oral bioavailability in po dosed mouse; format: ADME, organism-based; conditions: in vivo
# [22] = Plasma concentration in C57/BL/6 mouse at 50 mg/kg, po dosed once daily; format: ADME, organism-based; design: dose 50 mg/kg, route oral
# [23] = Half life in po dosed mouse; format: ADME, organism-based; conditions: in vivo
# [24] = Inhibition of gamma secretase in Tg2576 mouse mixed brain cultures assessed as reduction in Abeta40 production
# [25] = Inhibition of gamma secretase in Tg2576 mouse mixed brain cultures assessed as reduction in Abeta42 production
# [26] = Tmax in po dosed mouse; format: ADME, organism-based; conditions: in vivo
# [27] = Ratio of drug level in brain to plasma in C57/BL/6 mouse at 50 mg/kg, po dosed once daily; format: ADME, organism-based; design: dose 50 mg/kg, route oral; conditions: read-out: BPR
# [28] = Clearance in iv dosed mouse; format: ADME, organism-based; conditions: in vivo
# Mus musculus [29] = assay: Antialzheimer activity in Tg2576 mouse assessed as reduction in plaque load in brain cortex at 50 mg/kg/day, po (reference value: 2.8%); format: functional; design: scale not given: the % may be the effect or the level left
# [30] = Drug level in C57/BL/6 mouse brain at 50 mg/kg, po dosed once daily; format: ADME, organism-based; design: dose 50 mg/kg, route oral; conditions: read-out: Drug uptake
# [31] = Inhibition of gamma secretase in Tg2576 mouse mixed brain cultures assessed as increase in Abeta38 production
# [32] = Ratio of drug level in brain to plasma in mouse at 5 mg/kg, po after 2 hrs; format: ADME, organism-based; design: dose 5 mg/kg, route oral; conditions: read-out: BPR
# [33] = Drug level in mouse brain at 5 mg/kg, po after 2 hrs; format: ADME, organism-based; design: dose 5 mg/kg, route oral; conditions: read-out: Drug uptake
# [34] = Drug level in mouse brain after 6 hrs; format: ADME, tissue-based; conditions: read-out: Drug uptake
# Mus musculus [35] = assay: Antialzheimer activity in TASTPM transgenic mouse model assessed as increase in brain Abeta38 levels at 100 mg/kg measured after 3 to 15 hrs; format: functional
# [36] = Drug level in mouse plasma after 6 hrs; format: ADME, cell-free
# Mus musculus [37] = assay: Antialzheimer activity in TASTPM transgenic mouse model assessed as reduction in brain Abeta42 levels at 100 mg/kg measured after 3 to 15 hrs; format: functional; design: scale not given: the % may be the effect or the level left
structure (smiles),measurement,setting,value
CC(C)(C)CC[C@H](CCC(F)(F)F)N1CCC(F)(F)[C@H](CC(=O)O)[C@H]1c1ccc(C(F)(F)F)cc1,EC50,Mus musculus [1],1000 nM
same,ED50,Mus musculus [2],5 mg/kg
same,IC50,[3],600 nM
same,EC50,Mus musculus [4],3700 nM
same,Activity,Mus musculus [5],84%
CC(C)=CCCC(C)(O)[C@H]1CC[C@]2(C)[C@@H]1[C@H](O)C[C@@H]1[C@@]3(C)CC[C@H](O[C@@H]4O[C@H](CO)[C@@H](O)[C@H](O)[C@H]4O[C@@H]4O[C@H](CO)[C@@H](O)[C@H](O)[C@H]4O)C(C)(C)[C@@H]3CC[C@]12C (some centres undefined),Activity,Mus musculus [6],20%
same,IC50,[7],200000 nM
same,IC50,[8],25000 nM
CC(C)CC(C(=O)O)c1ccc(-c2ccc(C(F)(F)F)cc2)c(OCC2CC2)c1 (centres undefined),Kp,[9],0.11
same,Activity,Rattus norvegicus,20%
same,IC50,[3],140 nM
same,concentration,Brain,10 µM
O=C(O)C1(c2ccc(-c3ccc(Cl)c(Cl)c3)c(F)c2)CC1,Activity,Mus musculus [10],28%
same,Activity,Mus musculus [11],32%
same,Activity,Mus musculus [12],34%
same,Activity,Mus musculus [13],42%
same,IC50,[3],40000 nM
same,Activity,Mus musculus [14],64.1%
same,permeability,Mus musculus [15],5%
same,Activity,Mus musculus [16],62.2%
same,concentration at 672 h,[17],580 µM
same,concentration at 2856 h,[18],6.4 µM
same,concentration at 672 h,[19],20 µM
CCc1cc(Nc2nc(-c3ccc(-n4cnc(C)c4)c(F)c3)cs2)c(C)cc1C,Activity,Mus musculus [20],1.9%
same,concentration,Plasma,4 µM
same,bioavailability,[21],49%
same,AUC,[22],70000 ng·h/mL
same,half-life,[23],2 h
same,IC50,[24],90 nM
same,IC50,[25],29 nM
same,Tmax,[26],3 h
same,Kp,[27],0.93
same,clearance,[28],3.33 mL/min/kg
same,Activity,Mus musculus [29],7.6%
same,AUC,[30],65000 ng·h/mL
same,EC50,[31],170 nM
CC(C)CC[C@H](c1ncc(C(F)(F)F)cn1)N1CC[C@@H](CC(=O)O)C[C@H]1c1ccc(C(F)(F)F)cc1,Kp at 2 h,[32],0.74
same,concentration at 2 h,[33],4.2 µM
same,IC50,[3],320 nM
CC(C)CC[C@H](c1ccc(C(F)(F)F)nc1)N1CC[C@@H](CC(=O)O)C[C@H]1c1ccc(C(F)(F)F)cc1,concentration at 6 h,[34],54.7 µM
same,IC50,[3],800 nM
same,Activity,Mus musculus [35],30%
same,concentration at 6 h,[36],32.9 µM
same,Activity,Mus musculus [37],20%
